Source: paper PMC5905120, “An innovative immunotherapeutic strategy for ovarian cancer: CLEC10A and glycomimetic peptides” (Journal for Immunotherapy of Cancer, 2018)
Entries after “also recorded” stand apart in the source; their conditions may differ. Bridges are numbered along the chain shown (N, C = ends). Roman numbers before positions name the chains, in order. Where no end group is shown, it is not given here.

Key:
[1] = test system: ASGPR-1; conditions: ref [39]; cited from earlier work
Method: The type II C-type lectin asialoglycoprotein receptor-1 (ASGPR-1, Ashwell-Morell receptor, CLEC4H1) on hepatic cells also binds GalNAc-containing structures. ASGPR-1 has a 60-fold greater preference for GalNAc over Gal. Each healthy rat hepatocyte expresses 4 to 5 × 10^5 molecules of ASGPR-1 as binding sites for asialo-orosomucoid or 1.8 × 10^6 molecules as determined by an ASGPR-1-targeted antibody, which provides a surface concentration for the receptor of 0.8 to 1 μM. […] Corresponding values for binding of svL4 to CLEC10A and ASGPR-1 of 0.24 ± 0.04 μM and 0.21 ± 0.03 μM, respectively, were obtained. […] Asialofetuin, a multi-glycosylated pro ...

[2] = test system: ID8 ovarian cancer in C57BL/6 mice; test: Murine ovarian cancer model (ID8), sv6D and paclitaxel study; format: in vivo, mouse (C57BL/6)
Excerpt: Mantel-Cox log-rank test, p (sv6D vs. PBS) = < 0.0001. Paclitaxel, brown; sv6D from day 45, blue; paclitaxel plus sv6D from day 100, purple; cremophor, yellow; PBS, black

[3] = biological target: T1, human CLEC10A (Homo sapiens, UniProt Q8IUN9); test: Solid-phase binding to recombinant human CLEC10A; conditions: for binding to CLEC10A: Fig. 2a, representative of 3 independent experiments
T1 construct: purchased R&D Systems
T1 sequence (Q8IUN9 61-316 limits assumed): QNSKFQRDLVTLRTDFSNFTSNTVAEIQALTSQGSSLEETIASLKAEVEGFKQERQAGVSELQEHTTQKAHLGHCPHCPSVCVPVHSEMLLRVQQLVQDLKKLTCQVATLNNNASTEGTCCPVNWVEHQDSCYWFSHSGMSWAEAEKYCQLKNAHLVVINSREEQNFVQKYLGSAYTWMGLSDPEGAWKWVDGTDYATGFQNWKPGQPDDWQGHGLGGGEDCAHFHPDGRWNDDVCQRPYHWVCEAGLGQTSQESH
Method: (§1) Solid-phase binding assays were performed with streptavidin-, protein A/G-, or Nickel-coated microtiter plates (Pierce). His-tagged or Fc-fusion recombinant receptors (R&D Systems, Minneapolis, MN) were reconstituted in PBS. Sufficient receptors were added to wells to saturate the coating. His-tagged receptors were added to each well at a 5-fold excess over the stated capacity of the Ni coating to minimize non-specific binding of the peptide. Wells were washed three times with binding buffer (25 mM Tris HCl, pH 7.4, 150 mM NaCl, 0.05% Tween-20) to remove unbound receptor and 50 μL of 2 μM biotinylated peptide in binding buffer were added and allowed to incubate for 1 h. The wells were washed four times with binding buffer and then incubated with 50 μL of 1 μg/mL streptavidin conjugated with peroxidase (Sigma-Aldrich) for 1 h. The wells were washed five times with binding buffer and 50 μL of peroxidase substrate (1-Step™ Ultra TMB, Pierce) were added. After several minutes to allow color development, the reaction was stopped with 50 μL 1 M H3PO4 and absorbance was measured at 450 nm. Bound streptavidin was quantitated by the specific activity of peroxidase (absorbance/ng protein conjugate/min) under the conditions of the assay.
(§2) Solid-phase binding assays were performed with recombinant human receptors. Three variations of the binding assay were used in this study, all of which allowed the arms of the tetravalent peptide to have full flexibility. (i) Biotinylated peptide was bound in microtiter wells coated with streptavidin and incubated with recombinant human receptors. After extensive washing, the bound receptor was measured by peroxidase conjugated to a receptor-specific antibody. (ii) The extracellular domains of receptors, which were fused with the Fc domain of immunoglobulin IgG, were bound in wells coated with protein A/G. Biotinylated peptide was incubated with the receptors and, after extensive washing, bound peptide was measured with streptavidin conjugated with peroxidase. Or (iii), recombinant receptors with a poly-His tag were bound to Nickel-coated wells and incubated with biotinylated peptide. svL4 and sv6D contain His residues (see Table 1) and can bind to the Ni coating, which was minimized by adding sufficient poly-His-tagged receptor to saturate the Ni coating.

[4] = biological target: T2, human ASGPR-1 (Homo sapiens, UniProt P07306); test: Solid-phase binding to recombinant human ASGPR-1; conditions: for binding to ASGPR-1: Fig. 2a, representative of 3 independent experiments
T2 construct: purchased R&D Systems
T2 sequence (P07306 62-291 limits assumed): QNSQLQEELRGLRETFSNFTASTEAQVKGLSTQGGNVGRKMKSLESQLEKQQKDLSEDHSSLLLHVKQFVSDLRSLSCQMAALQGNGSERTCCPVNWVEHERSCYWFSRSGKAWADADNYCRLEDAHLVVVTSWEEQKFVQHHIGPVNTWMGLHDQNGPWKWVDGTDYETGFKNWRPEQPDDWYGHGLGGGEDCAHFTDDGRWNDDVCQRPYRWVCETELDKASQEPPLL
Method: as §1, §2

[5] = Antigenicity assay in mouse sera; format: in vivo; conditions: 1 nmole/g s.c., alternate days for 3 months; sera of 8 treated mice, Fig. 8
Method: The sequence of one arm of svL4 or sv6D was conjugated to keyhole limpet hemocyanin (KLH) and injected into rabbits at two week intervals (total of 3 injections) (New England Peptide, Inc., Gardner, MA). Two weeks after the final injection, sera were prepared. Mice were injected with a peptide every other day over a period of 3 months (total ~ 45 injections), blood was then collected by cardiac puncture and sera were prepared. Rabbit serum was diluted 1:10, whereas mouse serum was diluted 1:1 or 1:5 with PBS containing 0.05% Tween-20 (PBST). Sera were incubated in microtiter wells coated with protein A/G (Pierce) for 90 min. The wells were washed three times with PBST, and then incubated with 50 μL of 1 μM biotinylated svL4 or sv6D for 1 h. The wells were washed four times with PBST, incubated 1 h with 1 μg/mL streptavidin-peroxidase conjugate, and washed four times with PBST. Peroxidase activity was assayed as above under Binding Assays.
Fig. 8 Test for antigenicity of svL4 and sv6D. Anti-sera were generated in rabbits against KLH-conjugates of the sequences of svL4 or sv6D and diluted 1:10. Mouse sera were collected after alternate-day injections of svL4 over 3 months, diluted 1:1 with PBS and added to protein-A/G-coated wells. Biotinylated svL4 or sv6D was added to wells and bound peptide was detected with a streptavidin-peroxidase conjugate. […]

[6] = test system: peritoneal cells of C57BL/6 mice; test: Peritoneal immune cell populations by flow cytometry, C57BL/6 mice; format: in vivo, mouse (C57BL/6); conditions: 1 nmole/g s.c., 5-day period, Fig. 5 (non-binding control)
Method: Healthy C57BL/6 male mice, 10 weeks old, were injected subcutaneously with peptides on alternate days. Peritoneal cells were isolated from mice 24 h after dosing by injecting ice cold PBS (containing 3% FBS) into the peritoneal cavity, gently massaging the abdomen, and then collecting the fluid, which was transferred into K2EDTA-treated tubes for evaluation of specific biomarkers. Cells from three mice in each group were pooled, counted and divided among FACS tubes (1 × 10^6 cells per tube). Cells were washed once in PBS containing 3% FBS, then stained with 0.25 to 1 μg of fluorescently conjugated antibody per 10^6 cells in 100 μL of buffer as recommended by the manufacturer (Table 2).
Cells were incubated with the antibodies for 30 min at 4 °C in the dark. Following staining, the cells were washed two times with PBS/3% FBS and immediately analyzed with a MACSQuant flow cytometer (Miltenyi Biotech, Inc., San Diego, CA). Compensation was performed using single stain tubes for each color present in the analysis as well as an unstained control sample. Collection of flow cytometric data and analysis with FlowJo software, version 10.0.6 (FlowJo, LLC, Ashland, OR) were performed by Biomodels LLC (Watertown, MA).
To examine whether increases occurred in mature immune cells, peritoneal cells from Balb/c and C57BL/6 mice were analyzed by flow cytometry after cells were stained with the markers listed in Table 2. […] To explore this observation more extensively, svL4 or sv6D was injected into C57BL/6 mice on day 0, 2 or 4. Peritoneal cells were examined by flow cytometry 24 h after each injection. Shown in Fig. 5 are results expressed as cell counts for F4/80 CD11b CD86 (mature, active macrophages); CD11c (DCs); CD11c CD 86 (activated DCs); CD4 CD69 (activated T cells); CD8 CD69 (activated cytotoxic T cells); NK1.1 CD3^+ CD69 (activated NKT cells); NK1.1 CD3^− CD69 (activated NK cells); CD19 (B cells); and CD19 CD73 CD80 CD273 (memory B cells). The numbers of these mature, activated cells continued to increase with each injection.
Fig. 5 Expansion of peritoneal cells in C57BL/6 mice. Mice were injected subcutaneously at a dose of 1 nmole/g body weight of svL4, sv6D or svC1. Cells in each population recovered in a peritoneal lavage are expressed as cell counts (in thousands). Cells from three mice in each treatment group were pooled for analysis. The number of cells in each population was normalized to the average recovery of total cells from all groups. For each cell type, the left-hand, middle and right-hand set of bars represent samples from mice treated with svL4, sv6D or svC1, respectively. Mice were injected on days 0, 2 and 4, and cells were collected 24 h after each injection. Day 1, open bar; day 3, grey bar; day 5, black bar. Populations that express activation markers are indicated by an asterisk

[7] = test system: PD-1; conditions: patients with ovarian cancer; ref [106], [107]; cited from earlier work
Excerpt: Paclitaxel is currently used as a chemotherapeutic drug that acts by stabilizing microtubules and arresting cells in the cell cycle at the G2/M boundary. Paclitaxel is often combined with a platinum-based drug. Patients treated with these drugs experience a significant level of toxicity. […] However, because sv6D induces proliferation of immune cells, initiation of treatment should perhaps occur after the cell cycle inhibitory action of paclitaxel has dissipated. Pat ...

[8] = biological target: recombinant human CLEC10A (C-type lectin receptor family member 10A) (human) (UniProt Q8IUN9); test: ELISA; solid-phase binding assay as a function of the concentration of peptide; KD from double-reciprocal plots of the binding curves; extensive wash steps
[9] = biological target: recombinant human asialoglycoprotein receptor-1 (ASGPR-1) (human) (UniProt P07306); test: as above
[10] = double-reciprocal plot of binding vs. peptide concentration, biotinylated peptide, binding buffer 25 mM Tris HCl pH 7.4, 150 mM NaCl, 0.05% Tween-20, 1 h, streptavidin-peroxidase 450 nm, ± S.D., 4 separate assays

CC(=O)N[C@H]1C(O)O[C@H](CO)[C@H](O)[C@@H]1O (mixture of isomers) [GalNAc, N-acetylgalactosamine]
preference of ASGPR-1 for GalNAc over Gal [1]: 60 fold

CC(=O)O[C@H]1C(=O)[C@@]2(C)[C@H]([C@H](OC(=O)c3ccccc3)[C@]3(O)C[C@H](OC(=O)[C@H](O)[C@@H](NC(=O)c4ccccc4)c4ccccc4)C(C)=C1C3(C)C)[C@]1(OC(C)=O)CO[C@@H]1C[C@@H]2O [paclitaxel]
body weight increase (ascites) ([2]; aggressive disease, two weeks of treatment, sv6D 0.1 nmole/g s.c. alternate days, paclitaxel 18 μg/g i.p. days 45, 47, 49): had not significantly increased
ρ of body weight on day 58 vs. PBS or no treatment ([2]; paclitaxel 18 μg/g i.p. days 45, 47, 49, t test, Fig. 6a): < 0.05
median survival ([2]; paclitaxel alone, PBS control 122 days, Fig. 6c): approximately 141 days
ρ of body weight on day 121, paclitaxel vs. PBS ([2]; t test, Fig. 6b): < 0.05

I: NQHTPRGGGSKK-NH2 / II: NQHTPRGGGSK / III: NQHTPRGGGS / IV: NQHTPRGGGS (amide I:11-IV:C, I:12-II:C, II:11-III:C) [sv6D]
Kd [3, 10]: 150 ± 20 nM
Kd [4, 10]: 120 ± 10 nM
antibodies that bind the peptides in mouse sera [5]: negative

[(VQATQS- GGGS)2K]2K-NH2 [svC1]
binding to CLEC10A [3]: near the level of blank wells; also recorded: does not bind to CLEC10A
binding to ASGPR-1 [4]: near the level of blank wells
expansion of specific cell types [6]: did not increase significantly

[(VSNQH- GGGS)2K]2K-NH2 [svD2]
binding to CLEC10A [3]: bound weakly
binding to ASGPR-1 [4]: bound weakly

nivolumab: antibody against the inhibitory receptor PD-1
overall response rate [7]: 15%

pembroliumab: antibody against the inhibitory receptor PD-1
overall response rate [7]: 15%

B1: svL4, tetravalent peptide [(…-GGGS)2K]2K-NH2 (designed binder)
chain 1: VQATQSNQHTPRGGGS
chain 2: Lys-Lys-Lys-NH2
modifications: not fully specified; printed as [(VQATQSNQHTPR-GGGS)_2_K]_2_K-NH_2_; also: tetravalent: four arms joined by C-termini to branched tri-lysine core
Kd [8]: 240 nM
Kd [9]: 210 nM
